Reference: patent US12448365B2, “Aryl aminopyrimidines as dual MerTK and TYRO3 inhibitors and methods thereof” (The University of North Carolina at Chapel Hill, priority 2019, dated 2025)
pIC50: −log10 of the molar value. Read-outs that look alike come from different tables or passages of the source.

Columns and labels:
[1] = target: Tyro3 (Homo sapiens (Human), UniProt Q06418); assay: Microfluidic Capillary Electrophoresis (MCE) kinase activity assay, Tyro3; format: biochemical
[2] = target: Mer (Homo sapiens (Human), UniProt Q12866); assay: Microfluidic Capillary Electrophoresis (MCE) kinase activity assay, Mer; format: biochemical
Mer, sequence (Q12866 21-999): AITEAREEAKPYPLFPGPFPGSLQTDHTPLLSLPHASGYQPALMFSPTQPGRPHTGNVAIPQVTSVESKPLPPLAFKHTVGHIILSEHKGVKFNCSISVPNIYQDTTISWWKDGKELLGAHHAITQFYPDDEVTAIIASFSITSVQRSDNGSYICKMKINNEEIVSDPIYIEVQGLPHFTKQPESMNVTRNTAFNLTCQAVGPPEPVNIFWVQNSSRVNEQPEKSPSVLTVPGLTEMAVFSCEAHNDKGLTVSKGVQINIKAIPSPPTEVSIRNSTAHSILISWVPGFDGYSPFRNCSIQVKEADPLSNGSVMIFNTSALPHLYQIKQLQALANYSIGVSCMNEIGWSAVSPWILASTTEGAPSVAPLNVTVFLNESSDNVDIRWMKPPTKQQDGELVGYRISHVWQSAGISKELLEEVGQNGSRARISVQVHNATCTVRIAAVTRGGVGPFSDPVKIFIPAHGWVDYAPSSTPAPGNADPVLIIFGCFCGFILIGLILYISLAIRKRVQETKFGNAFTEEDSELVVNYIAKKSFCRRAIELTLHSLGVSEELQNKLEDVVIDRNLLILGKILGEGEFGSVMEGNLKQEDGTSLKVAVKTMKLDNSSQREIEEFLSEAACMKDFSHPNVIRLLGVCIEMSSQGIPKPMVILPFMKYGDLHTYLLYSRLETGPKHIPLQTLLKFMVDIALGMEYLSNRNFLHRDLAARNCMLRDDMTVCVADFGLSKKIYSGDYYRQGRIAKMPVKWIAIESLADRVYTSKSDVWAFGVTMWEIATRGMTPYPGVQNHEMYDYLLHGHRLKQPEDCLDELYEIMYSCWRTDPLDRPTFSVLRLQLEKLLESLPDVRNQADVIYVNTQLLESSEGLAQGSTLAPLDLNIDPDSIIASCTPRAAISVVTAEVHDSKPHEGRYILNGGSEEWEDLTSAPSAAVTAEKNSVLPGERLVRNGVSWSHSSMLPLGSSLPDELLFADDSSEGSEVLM

[3] = MCE assay, Mer 2.0 nM, ATP 5.0 uM (at Km), 1.0 μM fluorescent substrate, 180 min incubation
[4] = MCE assay, Tyro 10 nM, ATP 21 uM (at Km), 1.0 μM fluorescent substrate, 180 min incubation

Tyro3, sequence (Q06418 41-890): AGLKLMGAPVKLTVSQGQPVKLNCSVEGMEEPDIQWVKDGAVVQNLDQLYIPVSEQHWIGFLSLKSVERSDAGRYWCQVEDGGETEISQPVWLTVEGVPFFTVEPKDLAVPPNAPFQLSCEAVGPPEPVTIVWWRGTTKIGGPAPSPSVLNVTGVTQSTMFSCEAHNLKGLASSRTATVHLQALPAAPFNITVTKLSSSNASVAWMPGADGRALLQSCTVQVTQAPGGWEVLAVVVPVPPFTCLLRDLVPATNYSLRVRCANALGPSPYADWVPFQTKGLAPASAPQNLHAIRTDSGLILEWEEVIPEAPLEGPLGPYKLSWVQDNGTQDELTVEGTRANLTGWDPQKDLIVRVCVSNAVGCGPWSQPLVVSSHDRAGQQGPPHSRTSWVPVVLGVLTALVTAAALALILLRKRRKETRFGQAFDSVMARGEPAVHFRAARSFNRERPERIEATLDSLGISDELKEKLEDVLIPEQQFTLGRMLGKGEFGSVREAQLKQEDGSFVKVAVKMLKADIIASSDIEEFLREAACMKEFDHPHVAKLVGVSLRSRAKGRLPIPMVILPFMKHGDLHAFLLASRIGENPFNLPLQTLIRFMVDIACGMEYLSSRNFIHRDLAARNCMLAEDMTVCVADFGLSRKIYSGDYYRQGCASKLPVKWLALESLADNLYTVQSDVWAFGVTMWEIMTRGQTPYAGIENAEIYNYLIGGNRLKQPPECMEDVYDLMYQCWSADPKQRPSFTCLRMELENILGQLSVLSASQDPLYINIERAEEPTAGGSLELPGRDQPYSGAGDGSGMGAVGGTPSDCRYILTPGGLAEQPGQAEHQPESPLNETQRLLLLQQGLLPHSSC

| SMILES | pIC50 [1] | pIC50 [2] | pIC50 [2, 3] | pIC50 [1, 4] |
| --- | --- | --- | --- | --- |
| COc1cccc(Nc2ncc(C3CCN(C(=O)C4CCCC4)CC3)c(N[C@H]3CC[C@H](O)CC3)n2)c1 [Compound 1, cyclopentyl(4-(4-((trans-4-hydroxycyclohexyl)amino)-2-((3-methoxyphenyl)amino)pyrimidin-5-yl)piperidin-1-yl)methanone] | 6.00 to 7.00 | 6.00 to 7.00 | – | – |
| COc1cc(Nc2ncc(C3CCN(C(=O)OC(C)(C)C)CC3)c(N[C@H]3CC[C@H](O)CC3)n2)ccn1 [Compound 2] | 7.00 to 8.00 | 7.00 to 8.00 | – | – |
| COc1cc(Nc2ncc(C3CCN(C)CC3)c(N[C@H]3CC[C@H](O)CC3)n2)ccn1 [Compound 6] | 7.00 to 8.00 | 7.00 to 8.00 | – | – |
| Cc1cc(Nc2ncc(C3CCNCC3)c(N[C@H]3CC[C@H](O)CC3)n2)ccn1 [Compound 8] | 7.00 to 8.00 | 7.00 to 8.00 | – | – |
| O[C@H]1CC[C@H](Nc2nc(Nc3ccnc(Cl)c3)ncc2C2CCNCC2)CC1 [Compound 9] | 7.00 to 8.00 | 7.00 to 8.00 | – | – |
| Cc1cc(Nc2ncc(C3CCNCC3)c(N[C@H]3CC[C@H](O)CC3)n2)cc(C)n1 [Compound 10] | 7.00 to 8.00 | 4.52 to 6.00 | – | – |
| Cc1cc(Nc2ncc(C3CCN(C4CCCC4)CC3)c(N[C@H]3CC[C@H](O)CC3)n2)ccn1 [Compound 11, trans-4-((5-(1-cyclopentylpiperidin-4-yl)-2-((2-methylpyridin-4-yl)amino)pyrimidin-4-yl)amino)cyclohexan-1-ol] | 7.00 to 8.00 | – | > 8.00 | – |
| O[C@H]1CC[C@H](Nc2nc(Nc3ccnc(C(F)(F)F)c3)ncc2C2CCN(C3CCCC3)CC2)CC1 [Compound 13] | 7.00 to 8.00 | > 8.00 | – | – |
| NC(=O)c1cc(Nc2ncc(C3CCN(C4CCCC4)CC3)c(N[C@H]3CC[C@H](O)CC3)n2)ccn1 [Compound 14] | 7.00 to 8.00 | 7.00 to 8.00 | – | – |
| Cc1cc(Nc2ncc(C3CCN(CC4CCCC4)CC3)c(N[C@H]3CC[C@H](O)CC3)n2)cc(C)n1 [Compound 19] | 7.00 to 8.00 | 6.00 to 7.00 | – | – |
| COc1cc(Nc2ncc(C3CCNCC3)c(N[C@H]3CC[C@H](NC(C)=O)CC3)n2)ccn1 [Compound 21] | 7.00 to 8.00 | 7.00 to 8.00 | – | – |
| COc1cc(Nc2ncc(C3CCN(C4CCCC4)CC3)c(N[C@H]3CC[C@H](NC(C)=O)CC3)n2)ccn1 [Compound 22] | 4.52 to 6.00 | 6.00 to 7.00 | – | – |
| COc1cc(Nc2ncc(C3CCN(C4CCCC4)CC3)c(N[C@H]3CC[C@H](N)CC3)n2)ccn1 [Compound 23] | 7.00 to 8.00 | – | > 8.00 | – |
| COc1cc(Nc2ncc(C3CCN(C4CCCC4)CC3)c(N[C@H]3CC[C@H](N(C)C)CC3)n2)ccn1 [Compound 24] | 6.00 to 7.00 | 7.00 to 8.00 | – | – |
| COc1cc(Nc2ncc(C3CCN(C4CCCC4)CC3)c(N[C@H]3CC[C@H](O)CC3)n2)ccn1 [Compound 25] | 7.00 to 8.00 | – | > 8.00 | – |
| COc1cc(Nc2ncc(C3CCN(C(=O)C4CCCC4)CC3)c(N[C@H]3CC[C@H](O)CC3)n2)ccn1 [Compound 26, Cyclopentyl(4-(4-((trans-4-hydroxycyclohexyl)amino)-2-((2-methoxypyridin-4-yl)amino)pyrimidin-5-yl)piperidin-1-yl)methanone] | 7.00 to 8.00 | 7.00 to 8.00 | – | – |
| O[C@H]1CC[C@H](Nc2nc(Nc3ccnc(Cl)c3)ncc2C2CCN(Cc3ccccc3)CC2)CC1 [Compound 32] | 7.00 to 8.00 | – | > 8.00 | – |
| O[C@H]1CC[C@H](Nc2nc(Nc3ccnc(F)c3)ncc2C2CCNCC2)CC1 [Compound 37] | 7.00 to 8.00 | – | > 8.00 | – |
| O[C@H]1CC[C@H](Nc2nc(Nc3ccnc(C4CC4)c3)ncc2C2CCNCC2)CC1 [Compound 41] | 7.00 to 8.00 | 7.00 to 8.00 | – | – |
| O[C@H]1CC[C@H](Nc2nc(Nc3ccnc(N4CCCC4)c3)ncc2C2CCNCC2)CC1 [Compound 43] | 4.52 to 6.00 | 6.00 to 7.00 | – | – |
| CN1CCN(c2cc(Nc3ncc(C4CCNCC4)c(N[C@H]4CC[C@H](O)CC4)n3)ccn2)CC1 [Compound 44] | 6.00 to 7.00 | 7.00 to 8.00 | – | – |
| O[C@H]1CC[C@H](Nc2nc(Nc3ccnc(N4CCCCC4)c3)ncc2C2CCNCC2)CC1 [Compound 45] | 4.52 to 6.00 | 4.52 to 6.00 | – | – |
| O[C@H]1CC[C@H](Nc2nc(Nc3ccnc(Cl)c3)ncc2C2CCN(c3ccccc3)CC2)CC1 [Compound 47, trans-4-((2-((2-Chloropyridin-4-yl)amino)-5-(1-phenylpiperidin-4-yl)pyrimidin-4-yl)amino)cyclohexan-1-ol] | 7.00 to 8.00 | 7.00 to 8.00 | – | – |

Second part, the compound after the results:

| pIC50 [1] | pIC50 [2] | pIC50 [2, 3] | pIC50 [1, 4] | SMILES |
| --- | --- | --- | --- | --- |
| 7.00 to 8.00 | – | > 8.00 | – | COc1cccc(Nc2ncc(C3CCN(CC4CCCC4)CC3)c(N[C@H]3CC[C@H](O)CC3)n2)c1 [Compound 4, trans-4-((5-(1-(cyclopentylmethyl)piperidin-4-yl)-2-((3-methoxyphenyl)amino)pyrimidin-4-yl)amino)cyclohexan-1-ol] |
| 7.00 to 8.00 | – | > 8.00 | – | COc1cc(Nc2ncc(C3CCN(CC4CCCC4)CC3)c(N[C@H]3CC[C@H](O)CC3)n2)ccn1 [Compound 5] |
| – | – | > 8.00 | > 8.00 | O[C@H]1CC[C@H](Nc2nc(Nc3ccnc(Cl)c3)ncc2C2CCN(C3CCCC3)CC2)CC1 [Compound 12] |
| 7.00 to 8.00 | – | > 8.00 | – | Cc1cc(Nc2ncc(C3CCN(CC4CCCC4)CC3)c(N[C@H]3CC[C@H](O)CC3)n2)ccn1 [Compound 15] |
| – | – | > 8.00 | > 8.00 | O[C@H]1CC[C@H](Nc2nc(Nc3ccnc(Cl)c3)ncc2C2CCN(CC3CCCC3)CC2)CC1 [Compound 16] |
| 7.00 to 8.00 | 7.00 to 8.00 | – | – | O[C@H]1CC[C@H](Nc2nc(Nc3ccnc(C(F)(F)F)c3)ncc2C2CCN(CC3CCCC3)CC2)CC1 [Compound 17] |
| – | – | > 8.00 | > 8.00 | CC(F)(F)c1cc(Nc2ncc(C3CCN(CC4CCCC4)CC3)c(N[C@H]3CC[C@H](O)CC3)n2)ccn1 [Compound 18] |
| 7.00 to 8.00 | – | > 8.00 | – | NC(=O)c1cc(Nc2ncc(C3CCN(CC4CCCC4)CC3)c(N[C@H]3CC[C@H](O)CC3)n2)ccn1 [Compound 20] |
| 7.00 to 8.00 | 7.00 to 8.00 | – | – | O[C@H]1CC[C@H](Nc2nc(Nc3ccnc(Cl)c3)ncc2C2CCN(CC3COC3)CC2)CC1 [Compound 28] |
| 7.00 to 8.00 | 7.00 to 8.00 | – | – | CN1CCC(CN2CCC(c3cnc(Nc4ccnc(Cl)c4)nc3N[C@H]3CC[C@H](O)CC3)CC2)CC1 [Compound 29] |
| – | – | > 8.00 | > 8.00 | O[C@H]1CC[C@H](Nc2nc(Nc3ccnc(Cl)c3)ncc2C2CCN(CC3CCC(F)(F)CC3)CC2)CC1 [Compound 30] |
| 7.00 to 8.00 | – | > 8.00 | – | Cc1cc(CN2CCC(c3cnc(Nc4ccnc(Cl)c4)nc3N[C@H]3CC[C@H](O)CC3)CC2)no1 [Compound 31] |
| – | – | > 8.00 | > 8.00 | O[C@H]1CC[C@H](Nc2nc(Nc3ccnc(Cl)c3)ncc2C2CCN(CC3CCC3)CC2)CC1 [Compound 33] |
| 7.00 to 8.00 | – | > 8.00 | – | O[C@H]1CC[C@H](Nc2nc(Nc3ccnc(Cl)c3)ncc2C2CCN(CC3CCOCC3)CC2)CC1 [Compound 34] |
| – | – | > 8.00 | > 8.00 | O[C@H]1CC[C@H](Nc2nc(Nc3ccnc(Cl)c3)ncc2C2CCN(CC3CC3)CC2)CC1 [Compound 46] |
| – | – | > 8.00 | > 8.00 | CC1(C)CC(N2CCC(c3cnc(Nc4ccnc(Cl)c4)nc3N[C@H]3CC[C@H](O)CC3)CC2)C1 [Compound 48] |
| – | – | > 8.00 | > 8.00 | O[C@H]1CC[C@H](Nc2nc(Nc3ccnc(Cl)c3)ncc2C2CCN(C3CC(C4CC4)C3)CC2)CC1 (stereo partly drawn) [Compound 49] |
| 7.00 to 8.00 | – | > 8.00 | – | N#Cc1cc(Nc2ncc(C3CCN(CC4CCCC4)CC3)c(N[C@H]3CC[C@H](O)CC3)n2)ccn1 [Compound 55] |
| 7.00 to 8.00 | – | > 8.00 | – | N#Cc1cc(Nc2ncc(C3CCN(CC4CCC(F)(F)CC4)CC3)c(N[C@H]3CC[C@H](O)CC3)n2)ccn1 [Compound 56] |
